Experimental data taken from patent US4344958A, “Method of inhibiting sickling of sickle erythrocytes using substituted-2-imidazolines” (priority 1980, dated 1982).

What was measured:
[1] = target: Hb-S (Homo sapiens, UniProt P68871+P69905, E7V); test: Oxygen-Affinity Assay (whole Hb-S blood, tonometer); assay type: cell-based; parameters: key: ΔP50 in mm Hg (oxygen tension at 50% saturation, control vs treated); conditions: 37° C., difference control vs treated, negative = toward normal Hb-S oxygen affinity, oxygen partial pressure plotted in mm Hg
Experimental: The compounds described herein were tested in an "Oxygen-Affinity Assay" to measure the ability of the compound to influence the Hb-S oxygen affinity. There is a relationship between oxygen binding and Hb-S gelation and thus a measure of oxygen affinity is an index of Hb-S aggregation within the red blood cell. Hemoglobin S polymers decrease the overall oxygen affinity. Thus a return to normal of Hb-S oxygen affinity is a measure of decreased gelation. For measurements of oxygen equilibria whole Hb-S blood was equilibrated in a tonometer at 37° C. and measurements were made in the presence of a 5 millimolar (mM) or 10 mM concentration of the test compound. The whole blood pH, oxygen tension, and blood PO2 were measured. The percentage of oxygen saturation was plotted against the partial pressure of oxygen (mm Hg). The P50 value (oxygen tension at 50% saturation) was determined for each control and treated whole blood sample and the difference (Δ P50) between the control and treated whole blood sample noted. As used herein, a negative Δ P50 represents a change toward a normal Hb-S oxygen affinity and thus is a measure of the test compound's ability to inhibit the sickling of sickle erythrocytes.

[2] = normal adults, single dosages 25 to 250 milligrams, cited from earlier work
[3] = compound and its pharmaceutically-acceptable salts; cited from earlier work
[4] = compound and its pharmaceutically-acceptable salts; cited from earlier work; remark: listed apart in the source
[5] = compound and its pharmaceutically-acceptable salts; cited from earlier work; remark: listed apart in the source
[6] = compound and its pharmaceutically-acceptable salts; cited from earlier work; remark: listed apart in the source

SMILES | Δ P50 ([1]; 5 mM test compound) | Δ P50 ([1]; 10 mM test compound) | other results
Cl.Clc1ccc(NCC2=NCCN2)cc1Cl [Example 1, 2-((3,4-dichloroanilino)methyl)-2-imidazoline hydrochloride] | -9 | -12.6 | 
Cl.Clc1ccc(OCC2=NCCN2)cc1Cl [Example 2, 2-((3,4-dichlorophenoxy)methyl)-2-imidazoline hydrochloride] | -8 | -8.0 | blood pressure ([2]; at high dose level): increased blood pressure; heart rate ([2]; at high dose level): decreased heart rate; ill effects [2]: no ill effects other than a "tingling sensation" on the skin reported by some of the subjects
Cl.Oc1ccc(SCC2=NCCN2)cc1Cl [Example 3, 2-Chloro-4-(((2-imidazolin-2-yl)methyl)thio)-phenol Hydrochloride] | 0 | -13.0 | 
Clc1ccc(OCC2=NCCN2)cc1Cl [fenmetozole, 2-((3,4-Dichlorophenoxy)methyl)-2-imidazoline] |  |  | alcohol antagonist activity [3]: alcohol antagonist activity; barbiturate antagonist activity [4]: barbiturate antagonist activity; activity against minimal brain dysfunction in children [5]: activity against minimal brain dysfunction in children; antidepressant activity [6]: antidepressant
Cl.Cl.Nc1ccc(SCC2=NCCN2)cc1Cl [Example 4, 2-(((4-Amino-3-chlorophenyl)thio)methyl)-2-imidazoline Dihydrochloride] | -9 | -10.0 | 
